According to patent US20260199309A1, “COMPOUNDS FOR THE TREATMENT OF CENTRA NERVOUS SYSTEM DISORDERS” (Autifony Therapeutics Limited, priority 2022, published 2026):

Experiment: In vitro metabolic stability (CLint), human
Type: in vitro ADME
Conditions: intrinsic clearance, incubation 0-30 minutes at 37° C. with NADPH regenerating system
Method: The objective of this study was to determine metabolic stability of test items in preclinical species and human liver microsomes. Verapamil and dextromethorphan were used as positive controls for microsomal incubation.
Incubation medium was prepared by combining 11.2 mL of potassium phosphate monobasic and 38.8 mL of potassium phosphate dibasic, diluted to 1 L with water. Cryopreserved microsomes were thawed and kept on ice until use. Microsomes were then diluted in incubation to a protein concentration of 0.56 mg/mL. Cells were centrifuged, re-suspended in medium and counted by means of a haemocytometer. Cell viability was measured using the Trypan Blue exclusion test.
NADPH regenerating system solution was prepared by dissolving 1.7 mg of NADP, 7.8 mg of G6P and 6 units of G6P-Dehydrogenase in 1 mL of 2% sodium bicarbonate solution (prepared by dissolving 20 g of NaHCO3 in 1 L of water).
Test compounds were separately dissolved in DMF to obtain 10 mM stock solutions that were further diluted in water/acetonitrile 50/50 (v/v) to obtain the corresponding 50 uM working solutions. Verapamil and dextromethorphan were dissolved in DMF in order to obtain a 10 mM verapamil solution and 10 mM dextromethorphan solution. These solutions were then diluted in the incubation medium in order to obtain a 50 uM verapamil working solution and a 50 uM dextromethorphan working solution.
800 μL-aliquots of NADPH regenerating system were pre-warmed at 37° C. for 5 minutes. […]
Metabolic stability was calculated from the peak area ratio of the remaining test compound with internal standard versus time. The intrinsic clearance (CLint) was determined from the first order elimination constant k (min^−1) (obtained from GraphPad by plotting the natural logarithm of the peak area ratio of the remaining test item with internal standard versus time), using the actual volume of the incubation V (mL), the amount of hepatocytes in the incubation M (million cells) and the hepatocellularity number per g liver Hn (120 for human).
Work on COc1nc(Oc2ccc(C)c3c2C2(CC2)CO3)ccc1N1C(=O)NC(C)(C)C1=O [Reference Example 2, reference compound] yielded a CLi human of 2.0 mL/min/g liver. Cc1ccc(Oc2ccc(N3C(=O)NC(C)(C)C3=O)c(N)n2)c2c1OCC21CC1 [Example 1, 3-[2-amino-6-(7-methylspiro[2H-benzofuran-3,1′-cyclopropane]-4-yl)oxy-3-pyridyl]-5,5-dimethyl-imidazolidine-2,4-dione] gave a CLi human of 1.1 mL/min/g liver. Work on CC1(C)NC(=O)N(c2ccc(Oc3cccc(OC(F)(F)F)c3)nc2N)C1=O [Example 9, 3-[2-amino-6-[3-(trifluoromethoxy)phenoxy]-3-pyridyl]-5,5-dimethyl-imidazolidine-2,4-dione] yielded a CLi human of under 0.5 mL/min/g liver.
